Legend:
[1] = tested on: M. avium-GFP (strain MAC104); test: Toxicity assay with GFP-expressing M. avium; conditions: for Percent-GFP-fluorescence after incubation with test compounds, M. avium-GFP (20 μg/ml): 18 h incubation, relative to untreated bacteria
Protocol: (§1) E. coli-GFP cells were grown in LB broth media while the MAC104 M. avium strain was grown in 7H9-ADC media.
(§2) Toxicity assays with GFP-expressing bacteria. E. coli was transformed with a GFP-expression plasmid that also confers tetracycline resistance was kindly provided by Dr. David Schneider (Elrod-Erickson et al., 2000). […] Both bacterial strains were grown and selected based on antibiotic resistance and GFP expression. All toxicity assays were performed using the plates and fluorometric parameters described in the previous section. Bacterial cell suspensions were seeded in a final volume of 100 μl at an optical density of 0.05 and 0.25 at 650 nm, for E. coli-GFP and M. avium-GFP, respectively. After exposure to the test compounds, assay plates were incubated at 37° C. in a humid environment to prevent dehydration in the wells. Unlike the HeLa-GFP assays, reading were performed without removing the supernatants to avoid loss of cells. Several untreated wells containing bacteria and media were used to determine the maximum level of fluorescence. Several wells containing media alone (no bacteria) were included in each assay to remove background fluorescence.
(§3) Data analysis. All compounds, including controls, were screened in triplicate. The average of the three wells that were used for the removal of the background fluorescence (wells containing water for the HeLa-GFP assays and wells containing media alone for bacteria) was subtracted from each individual well. The mean of these triplicate values for each compound was then obtained.

E. coli-GFP = test: Toxicity assay with GFP-expressing E. coli; conditions: for Percent-GFP-fluorescence after incubation with test compounds, E. coli-GFP (20 μg/ml): 10 h incubation, relative to untreated bacteria
Protocol: as §1, §2, §3

HeLa-GFP cells = test: HeLa-GFP fluorometric cytotoxicity assay; conditions: for Percent-GFP-fluorescence after incubation with test compounds, HeLa-GFP (2 μg/ml) / Percent-GFP-fluorescence after incubation with test compounds, HeLa-GFP (20 μg/ml): 18 h incubation, relative to untreated (DMSO) cells
Protocol: Cell culture. HeLa-GFP cells were cultured in DMEM media supplemented with 10% heat-inactivated newborn calf serum as previously described (Montoya et al., 2004). Stock cultures were prewashed twice with PBS before the treatment of trypsin for cell resuspension and subsequently re-plated at the concentration of 4,000 cells/well.
HeLa-GFP fluorometric cytotoxicity assay. All cell lines were seeded in clear-bottomed 96-well assay plates (3603, Costar, Corning Inc., Corning, N.Y.) in order to minimized background fluorescence. HeLa cells were grown in a total volume of 0.2 ml of medium and incubated overnight for proper cell attachment. The quinone compounds were then added to each well (in triplicate) and then incubated for a period of 18 hr. For the determination of fluorescence, the assay plates were then read using the Fluoroskan Ascent F1 fluorometer (Thermo Electron Corp.) set at the excitation and emission parameters of 485 and 518 nm, respectively. Since the HeLa-GFP cell line is adherent, the fluorometer was set to read from the bottom of the plate for closer proximity to the cells. Before the readings were performed, all supernatant media was removed to avoid any background interference and thus enhancing the sensitivity of the optical readings. For calibration purposes, three untreated control wells were used to determine the maximum level of fluorescence (100%). […] As a cytolysis control (complete loss of fluorescence), three wells containing cells were exposed to 0.2 ml of deionized water. These controls were then used to calculate the percent loss of GFP signal after compound exposure as determined by comparison with control wells containing cells that were not exposed to the chemical agent (see data analysis below).
Data analysis. All compounds, including controls, were screened in triplicate. The average of the three wells that were used for the removal of the background fluorescence (wells containing water for the HeLa-GFP assays and wells containing media alone for bacteria) was subtracted from each individual well. The mean of these triplicate values for each compound was then obtained. These mean values were then divided by the average obtained for maximum fluorescence (cells not treated with compound) and then multiplied by 100 to obtain the percentage values as shown in Table 1.

[2] = loss of GFP signal, Table 1 screen

SMILES: CC(C)=CCC1=C(O)C(=O)c2ccccc2C1=O [Compound Q4, lapachol, reference compound]
- Percent-GFP-fluorescence after incubation with test compounds, M. avium-GFP (20 μg/ml) [1]: 26.0%
- Percent-GFP-fluorescence after incubation with test compounds, E. coli-GFP (20 μg/ml) (E. coli-GFP): 56.0%
- Percent-GFP-fluorescence after incubation with test compounds, HeLa-GFP (2 μg/ml) (HeLa-GFP cells): 70.0%
- Percent-GFP-fluorescence after incubation with test compounds, HeLa-GFP (20 μg/ml) (HeLa-GFP cells): 3.0%

SMILES: CCCC12OC1(CC)C(=O)c1ccccc1C2=O (stereo not shown) [Compound Q27]
- Percent-GFP-fluorescence after incubation with test compounds, M. avium-GFP (20 μg/ml) [1]: 133.0%
- Percent-GFP-fluorescence after incubation with test compounds, E. coli-GFP (20 μg/ml) (E. coli-GFP): 117.0%
- Percent-GFP-fluorescence after incubation with test compounds, HeLa-GFP (2 μg/ml) (HeLa-GFP cells): 21.0%
- Percent-GFP-fluorescence after incubation with test compounds, HeLa-GFP (20 μg/ml) (HeLa-GFP cells): 21.0%

SMILES: CCCCCCC1=CC(=O)c2c(OC)cccc2C1=O [Compound Q17]
- Percent-GFP-fluorescence after incubation with test compounds, M. avium-GFP (20 μg/ml) [1]: 100.0%
- Percent-GFP-fluorescence after incubation with test compounds, E. coli-GFP (20 μg/ml) (E. coli-GFP): 115.0%
- Percent-GFP-fluorescence after incubation with test compounds, HeLa-GFP (2 μg/ml) (HeLa-GFP cells): 80.0%
- Percent-GFP-fluorescence after incubation with test compounds, HeLa-GFP (20 μg/ml) (HeLa-GFP cells): 18.0%

SMILES: CCCCC12OC1C(=O)c1ccccc1C2=O (stereo not shown) [Compound Q24]
- Percent-GFP-fluorescence after incubation with test compounds, M. avium-GFP (20 μg/ml) [1]: 202.0%
- Percent-GFP-fluorescence after incubation with test compounds, E. coli-GFP (20 μg/ml) (E. coli-GFP): 87.0%
- Percent-GFP-fluorescence after incubation with test compounds, HeLa-GFP (2 μg/ml) (HeLa-GFP cells): 5.0%
- Percent-GFP-fluorescence after incubation with test compounds, HeLa-GFP (20 μg/ml) (HeLa-GFP cells): 23.0%

SMILES: CCCCCCCC1=CC(=O)c2c(OC)cccc2C1=O [Compound Q18]
- Percent-GFP-fluorescence after incubation with test compounds, M. avium-GFP (20 μg/ml) [1]: 127.0%
- Percent-GFP-fluorescence after incubation with test compounds, E. coli-GFP (20 μg/ml) (E. coli-GFP): 112.0%
- Percent-GFP-fluorescence after incubation with test compounds, HeLa-GFP (2 μg/ml) (HeLa-GFP cells): 88.0%
- Percent-GFP-fluorescence after incubation with test compounds, HeLa-GFP (20 μg/ml) (HeLa-GFP cells): 22.0%

SMILES: CCOC(=O)C1=C(CC)C(=O)c2ccccc2C1=O [Compound Q15]
- Percent-GFP-fluorescence after incubation with test compounds, M. avium-GFP (20 μg/ml) [1]: 40.0%
- Percent-GFP-fluorescence after incubation with test compounds, E. coli-GFP (20 μg/ml) (E. coli-GFP): 80.0%
- Percent-GFP-fluorescence after incubation with test compounds, HeLa-GFP (2 μg/ml) (HeLa-GFP cells): 85.0%
- Percent-GFP-fluorescence after incubation with test compounds, HeLa-GFP (20 μg/ml) (HeLa-GFP cells): 53.0%

SMILES: CCCC1=CC(=O)c2c(OC)cccc2C1=O [Compound Q16]
- Percent-GFP-fluorescence after incubation with test compounds, M. avium-GFP (20 μg/ml) [1]: 105.0%
- Percent-GFP-fluorescence after incubation with test compounds, E. coli-GFP (20 μg/ml) (E. coli-GFP): 127.0%
- Percent-GFP-fluorescence after incubation with test compounds, HeLa-GFP (2 μg/ml) (HeLa-GFP cells): 78.0%
- Percent-GFP-fluorescence after incubation with test compounds, HeLa-GFP (20 μg/ml) (HeLa-GFP cells): 10.0%

SMILES: CC12OC1(c1ccccc1)C(=O)c1ccccc1C2=O (stereo not shown) [Compound Q21]
- Percent-GFP-fluorescence after incubation with test compounds, M. avium-GFP (20 μg/ml) [1]: 57.0%
- Percent-GFP-fluorescence after incubation with test compounds, E. coli-GFP (20 μg/ml) (E. coli-GFP): 122.0%
- Percent-GFP-fluorescence after incubation with test compounds, HeLa-GFP (2 μg/ml) (HeLa-GFP cells): 57.0%
- Percent-GFP-fluorescence after incubation with test compounds, HeLa-GFP (20 μg/ml) (HeLa-GFP cells): 23.0%

SMILES: CCCCCC1=CC(=O)c2ccccc2C1=O [Compound Q10]
- Percent-GFP-fluorescence after incubation with test compounds, M. avium-GFP (20 μg/ml) [1]: 81.0%
- Percent-GFP-fluorescence after incubation with test compounds, E. coli-GFP (20 μg/ml) (E. coli-GFP): 110.0%
- Percent-GFP-fluorescence after incubation with test compounds, HeLa-GFP (2 μg/ml) (HeLa-GFP cells): 84.0%
- Percent-GFP-fluorescence after incubation with test compounds, HeLa-GFP (20 μg/ml) (HeLa-GFP cells): 52.0%

SMILES: CC1=CC(=O)c2ccccc2C1=O [Compound Q5, menadione, reference compound]
- Percent-GFP-fluorescence after incubation with test compounds, M. avium-GFP (20 μg/ml) [1]: 69.0%
- toxicity to M. avium (in words) [1, 2]: highly toxic
- Percent-GFP-fluorescence after incubation with test compounds, E. coli-GFP (20 μg/ml) (E. coli-GFP): 58.0%
- toxicity to E. coli (in words) (E. coli-GFP; [2]): highly toxic
- Percent-GFP-fluorescence after incubation with test compounds, HeLa-GFP (2 μg/ml) (HeLa-GFP cells): 13.0%
- Percent-GFP-fluorescence after incubation with test compounds, HeLa-GFP (20 μg/ml) (HeLa-GFP cells): 22.0%
- toxicity to HeLa-GFP cells (in words) (HeLa-GFP cells; [2]): highly toxic

SMILES: CCOC(=O)c1ccccc1C1=C(CN(C(=O)OC(C)(C)C)C(=O)OC(C)(C)C)C(=O)c2ccccc2C1=O [Compound Q35]
- Percent-GFP-fluorescence after incubation with test compounds, M. avium-GFP (20 μg/ml) [1]: 108.0%
- Percent-GFP-fluorescence after incubation with test compounds, E. coli-GFP (20 μg/ml) (E. coli-GFP): 104.0%
- Percent-GFP-fluorescence after incubation with test compounds, HeLa-GFP (2 μg/ml) (HeLa-GFP cells): 85.0%
- Percent-GFP-fluorescence after incubation with test compounds, HeLa-GFP (20 μg/ml) (HeLa-GFP cells): 58.0%

SMILES: CCCCCCC1=CC(=O)c2ccccc2C1=O [Compound Q11]
- Percent-GFP-fluorescence after incubation with test compounds, M. avium-GFP (20 μg/ml) [1]: 69.0%
- Percent-GFP-fluorescence after incubation with test compounds, E. coli-GFP (20 μg/ml) (E. coli-GFP): 98.0%
- Percent-GFP-fluorescence after incubation with test compounds, HeLa-GFP (2 μg/ml) (HeLa-GFP cells): 84.0%
- Percent-GFP-fluorescence after incubation with test compounds, HeLa-GFP (20 μg/ml) (HeLa-GFP cells): 14.0%

SMILES: O=C1c2ccccc2C(=O)C2(c3ccccc3)OC12c1ccccc1 (stereo not shown) [Compound Q20]
- Percent-GFP-fluorescence after incubation with test compounds, M. avium-GFP (20 μg/ml) [1]: 77.0%
- Percent-GFP-fluorescence after incubation with test compounds, E. coli-GFP (20 μg/ml) (E. coli-GFP): 86.0%
- Percent-GFP-fluorescence after incubation with test compounds, HeLa-GFP (2 μg/ml) (HeLa-GFP cells): 28.0%
- Percent-GFP-fluorescence after incubation with test compounds, HeLa-GFP (20 μg/ml) (HeLa-GFP cells): 29.0%

SMILES: CCCC12OC1(CCC)C(=O)c1ccccc1C2=O (stereo not shown) [Compound Q26]
- Percent-GFP-fluorescence after incubation with test compounds, M. avium-GFP (20 μg/ml) [1]: 97.0%
- Percent-GFP-fluorescence after incubation with test compounds, E. coli-GFP (20 μg/ml) (E. coli-GFP): 110.0%
- Percent-GFP-fluorescence after incubation with test compounds, HeLa-GFP (2 μg/ml) (HeLa-GFP cells): 26.0%
- Percent-GFP-fluorescence after incubation with test compounds, HeLa-GFP (20 μg/ml) (HeLa-GFP cells): 27.0%

SMILES: CCCC1=C(CC)C(=O)c2ccccc2C1=O [Compound Q13]
- Percent-GFP-fluorescence after incubation with test compounds, M. avium-GFP (20 μg/ml) [1]: 72.0%
- Percent-GFP-fluorescence after incubation with test compounds, E. coli-GFP (20 μg/ml) (E. coli-GFP): 93.0%
- Percent-GFP-fluorescence after incubation with test compounds, HeLa-GFP (2 μg/ml) (HeLa-GFP cells): 89.0%
- Percent-GFP-fluorescence after incubation with test compounds, HeLa-GFP (20 μg/ml) (HeLa-GFP cells): 21.0%

SMILES: CCOC(=O)c1ccc(C2=C(CNC(=O)OC(C)(C)C)C(=O)c3ccccc3C2=O)cc1 [Compound Q38]
- Percent-GFP-fluorescence after incubation with test compounds, M. avium-GFP (20 μg/ml) [1]: 119.0%
- Percent-GFP-fluorescence after incubation with test compounds, E. coli-GFP (20 μg/ml) (E. coli-GFP): 103.0%
- Percent-GFP-fluorescence after incubation with test compounds, HeLa-GFP (2 μg/ml) (HeLa-GFP cells): 81.0%
- Percent-GFP-fluorescence after incubation with test compounds, HeLa-GFP (20 μg/ml) (HeLa-GFP cells): 61.0%

SMILES: CCCCCCCC1=CC(=O)c2ccccc2C1=O [Compound Q12]
- Percent-GFP-fluorescence after incubation with test compounds, M. avium-GFP (20 μg/ml) [1]: 66.0%
- Percent-GFP-fluorescence after incubation with test compounds, E. coli-GFP (20 μg/ml) (E. coli-GFP): 82.0%
- Percent-GFP-fluorescence after incubation with test compounds, HeLa-GFP (2 μg/ml) (HeLa-GFP cells): 81.0%
- Percent-GFP-fluorescence after incubation with test compounds, HeLa-GFP (20 μg/ml) (HeLa-GFP cells): 14.0%

SMILES: C[Si](C)(C)n1nnc(C2=C(CO)C(=O)c3ccccc3C2=O)c1CO [Compound Q31]
- Percent-GFP-fluorescence after incubation with test compounds, M. avium-GFP (20 μg/ml) [1]: 94.0%
- Percent-GFP-fluorescence after incubation with test compounds, E. coli-GFP (20 μg/ml) (E. coli-GFP): 107.0%
- Percent-GFP-fluorescence after incubation with test compounds, HeLa-GFP (2 μg/ml) (HeLa-GFP cells): 88.0%
- Percent-GFP-fluorescence after incubation with test compounds, HeLa-GFP (20 μg/ml) (HeLa-GFP cells): 82.0%

SMILES: O=C1C=C(c2ccccc2)C(=O)c2ccccc21 [Compound Q7]
- Percent-GFP-fluorescence after incubation with test compounds, M. avium-GFP (20 μg/ml) [1]: 35.0%
- Percent-GFP-fluorescence after incubation with test compounds, E. coli-GFP (20 μg/ml) (E. coli-GFP): 89.0%
- Percent-GFP-fluorescence after incubation with test compounds, HeLa-GFP (2 μg/ml) (HeLa-GFP cells): 13.0%
- Percent-GFP-fluorescence after incubation with test compounds, HeLa-GFP (20 μg/ml) (HeLa-GFP cells): 25.0%

SMILES: COc1ccc(CC(=O)n2nnc(C3=C(CO)C(=O)c4ccccc4C3=O)c2CO)cc1 [Compound Q30]
- Percent-GFP-fluorescence after incubation with test compounds, M. avium-GFP (20 μg/ml) [1]: 96.0%
- Percent-GFP-fluorescence after incubation with test compounds, E. coli-GFP (20 μg/ml) (E. coli-GFP): 105.0%
- Percent-GFP-fluorescence after incubation with test compounds, HeLa-GFP (2 μg/ml) (HeLa-GFP cells): 84.0%
- Percent-GFP-fluorescence after incubation with test compounds, HeLa-GFP (20 μg/ml) (HeLa-GFP cells): 47.0%

SMILES: CCOC(=O)C12OC1(CC)C(=O)c1ccccc1C2=O (stereo not shown) [Compound Q28]
- Percent-GFP-fluorescence after incubation with test compounds, M. avium-GFP (20 μg/ml) [1]: 97.0%
- Percent-GFP-fluorescence after incubation with test compounds, E. coli-GFP (20 μg/ml) (E. coli-GFP): 115.0%
- Percent-GFP-fluorescence after incubation with test compounds, HeLa-GFP (2 μg/ml) (HeLa-GFP cells): 17.0%
- Percent-GFP-fluorescence after incubation with test compounds, HeLa-GFP (20 μg/ml) (HeLa-GFP cells): 4.0%

SMILES: CCCC1=C(CCC)C(=O)c2ccccc2C1=O [Compound Q8]
- Percent-GFP-fluorescence after incubation with test compounds, M. avium-GFP (20 μg/ml) [1]: 102.0%
- Percent-GFP-fluorescence after incubation with test compounds, E. coli-GFP (20 μg/ml) (E. coli-GFP): 134.0%
- Percent-GFP-fluorescence after incubation with test compounds, HeLa-GFP (2 μg/ml) (HeLa-GFP cells): 89.0%
- Percent-GFP-fluorescence after incubation with test compounds, HeLa-GFP (20 μg/ml) (HeLa-GFP cells): 16.0%

Source: US20080020421A1, “METHODS OF SCREENING AGENTS FOR CYTOTOXIC AND ANTIMICROBIAL ACTIVITY” (priority 2006, published 2008)
